The values that follow come from patent publication US12037324B2, “Biarylmethyl heterocycles” (Université de Montréal, priority 2016, dated 2024).

Test [1] deals with T1, hAT1R (Homo sapiens, UniProt P30556).
T1 sequence (P30556 1-359): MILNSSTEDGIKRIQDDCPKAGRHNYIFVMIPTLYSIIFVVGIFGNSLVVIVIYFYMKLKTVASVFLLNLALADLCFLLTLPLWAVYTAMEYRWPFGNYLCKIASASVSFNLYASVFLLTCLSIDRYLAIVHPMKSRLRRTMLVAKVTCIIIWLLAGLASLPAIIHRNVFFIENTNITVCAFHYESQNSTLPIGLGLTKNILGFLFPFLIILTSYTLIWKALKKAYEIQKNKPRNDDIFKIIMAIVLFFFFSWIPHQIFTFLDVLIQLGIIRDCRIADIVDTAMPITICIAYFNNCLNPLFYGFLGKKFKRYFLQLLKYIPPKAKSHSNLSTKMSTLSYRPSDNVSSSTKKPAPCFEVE
Briefly: BRET β-arrestin2 biosensor assay, higher receptor expression (hAT1R 5 ng/well), HEK293 cells. The format is cell-based. Conditions: for EC50: High AT1R Expression. On the technique in general: In BRET a luciferase serves as donor, and the signal depends on an acceptor being close.

Test [2] has as its target T1, hAT1R. The test is described as follows: BRET Gq biosensor assay, agonist response, HEK293 cells. In kind it is cell-based. Conditions: section of the 42nd table directly before the BRET P63 section. In a few lines:
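Agonist EC50 derived from a 4-parameter fit of BRET2 ratio (GFP 515 nm/Rluc 410 nm), scaled between unstimulated control and maximal AngII response. Readings taken 5 min after compound addition at room temperature, with 2 μM coelenterazine, in HEK293 cells expressing hAT1R, Gαq-Rluc, Gβ1 and GFP-Gγ1 (transfected two days earlier).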

Test [3] has as its target T1, hAT1R. The test is described as follows: cell-based. Conditions: agonist mode; for EC50: read-out: BRET P63 EC50.
The next test concerns the target T2, AGTR1 (Homo sapiens, UniProt P30556).
T2 construct: host or cells: Pathunter CHO-K1 AGTR1 β-arrestin cell line (CHO-K1)
T2 sequence (P30556 1-359): T1 sequence (P30556 1-359)
The test is described as follows: DiscoveRx β-arrestin2 recruitment assay (enzyme complementation, Pathunter CHO-K1 AGTR1 β-arrestin cell line). In kind it is cell-based. Conditions: DiscoveRx β-arrestin2 recruitment. In a few lines: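 Chemiluminescent enzyme-complementation read-out of β-arrestin2 recruitment to AGTR1 in engineered CHO-K1 cells after 90 min compound exposure at 37° C. Values are 4-parameter logistic EC50s in agonist mode, IC50s in antagonist mode, with efficacy relative to the maximal All response.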
On the technique in general: Activated receptors often draw arrestin, which recruitment assays turn into a signal.

Test [4] deals with T1, hAT1R. The test is described as follows: cell-based. Conditions: section of the 42nd table ending at r951, example numbering restarts after the DiscoveRx section; read-out: β-arrestin2 EC50.

The term EC50 denotes the concentration at which the effect is half-maximal. In the case of `CCCCc1nc(Cl)c(C(=O)O)n1Cc1ccc(-c2cc(C3CCCCC3)ccc2-c2nn[nH]n2)cc1` [Example 424, 2-butyl-4-chloro-1-((5′-cyclohexyl-2′-(2H-tetrazol-5-yl)-[1,1′-biphenyl]-4-yl)methyl)-1H-imidazole-5-carboxylic acid], the “BRET β-Arrestin2 High AT1R Expression Ymax (%)” value at hAT1R [1] was 76.7%. Further, the concentration giving a half-maximal response (EC50) at hAT1R [1] is 0.0678 µM; on hAT1R [2] it was 2.79 µM; at hAT1R [3] it was above 100 µM; on AGTR1 it was 0.0993 µM; at hAT1R [4] it was 0.0353 µM. In addition, the “DiscoveRx β-arrestin2 Ymax (%)” value on AGTR1 (maximal response) is on record as 28.6%.
On to `CCCc1nc(CC)c(C(=O)O)n1Cc1ccc(-c2cc(-c3ccccc3)ccc2-c2nn[nH]n2)cc1` [Example 396, 1-((6′-(2H-tetrazol-5-yl)-[1,1′:3′,1″-terphenyl]-4-yl)methyl)-4-ethyl-2-propyl-1H-imidazole-5-carboxylic acid], for which the “BRET β-Arrestin2 High AT1R Expression Ymax (%)” value on hAT1R [1] is 88.8%. Also, the 50% effective concentration (EC50) is 0.0064 µM at hAT1R [1]; 0.274 µM at hAT1R [2]; above 100 µM on hAT1R [3]; 0.005 µM on AGTR1; 0.0141 µM on hAT1R [4]. At AGTR1 (maximal response), the “DiscoveRx β-arrestin2 Ymax (%)” value is 57.8%.
In the case of `CCCCC(=O)N(Cc1ccc(-c2cc(-c3cc(C)ccn3)ccc2-c2nn[nH]n2)cc1)[C@H](C(=O)O)C(C)C` [Example 445], the “BRET β-Arrestin2 High AT1R Expression Ymax (%)” value at hAT1R [1] turned out to be 91.3%. Besides, the concentration for a half-maximal effect (EC50) at hAT1R [1] is 0.0098 µM; at hAT1R [2], 0.14 µM; on hAT1R [3], 0.103 µM; on AGTR1 it was 0.0377 µM; on hAT1R [4], 0.036 µM. Besides, the “BRET P63 Ymax” value at hAT1R [3] is 24.0%. On AGTR1, the “DiscoveRx β-arrestin2 Ymax (%)” value amounted to 61.2%.
Regarding `CCOc1nc2cccc(C(=O)O)c2n1Cc1ccc(-c2cc(-c3ccccc3)ccc2-c2nn[nH]n2)cc1` [Example 312, 1-((6′-(2H-tetrazol-5-yl)-[1,1′:3′,1″-terphenyl]-4-yl)methyl)-2-ethoxy-1H-benzo[d]imidazole-7-carboxylic acid], the “BRET β-Arrestin2 High AT1R Expression Ymax (%)” value at hAT1R [1] is 91.8%. Moreover, the EC50 was 0.0026 µM at hAT1R [1]; 0.0207 µM on hAT1R [2]; 0.0172 µM at hAT1R [3]; 0.0225 µM at AGTR1; 0.0058 µM at hAT1R [4]. Besides, on hAT1R [3], the “BRET P63 Ymax” value is 9.4%. Also, the “DiscoveRx β-arrestin2 Ymax (%)” value on AGTR1 (maximal response) turned out to be 79.9%.
On to `CCCCc1ncc(C(=O)NCc2cnn(C)c2)n1Cc1ccc(-c2cc(-c3ccccc3)ccc2-c2nn[nH]n2)cc1` [Example 346], for which the “BRET β-Arrestin2 High AT1R Expression Ymax (%)” value on hAT1R [1] was 92.1%. The EC50 at hAT1R [1] was 0.0071 µM; on hAT1R [2], 0.0671 µM; on hAT1R [3], 0.0193 µM; on AGTR1, 0.013 µM; on hAT1R [4], 0.0111 µM. For the same molecule, the “BRET P63 Ymax” value at hAT1R [3] is 6.0%. Moreover, the “DiscoveRx β-arrestin2 Ymax (%)” value on AGTR1 (maximal response) was found to be 44.5%.
